Here are results for three compounds from article PMC6154339, “Synthesis, Characterization, Antimicrobial and Antiproliferative Activity Evaluation of Cu(II), Co(II), Zn(II), Ni(II) and Pt(II) Complexes with Isoniazid-Derived Compound” (Molecules : A Journal of Synthetic Chemistry and Natural …, 2017).

Values after ≈ are worked out from the molar mass of the structure shown. Like-named read-outs stand apart in the source and are kept apart here.

A short description of series [1]: Solubility in compendial aqueous media. The class given is physicochemical. The settings on record: 37 °C, mean ± standard deviation, n = 3; for solubility at 30 min: kinetic from dmso stock; for solubility in compendial media: 30 min. On the procedure:
Solubility assessment was conducted in compendial aqueous solutions prepared according to United States Pharmacopoeia USP39/NF34): hydrochloric acid 0.1 N pH 1.2, acetate buffer pH 4.5 and phosphate buffer 6.8. These buffer systems are routinely used for screening of drug dissolution testing and they simulate the pH values of proximal gastrointestinal regions. The standard samples were prepared by diluting the stock solution of 80 µg/mL in dimethyl sulfoxide (with 0.2% pyridine, v/v) with corresponding media. The reagents were of analytical grade and used as received.
The assay was performed using a SpectraMax Plus 84 Plate reader reader (Sunnyvale, CA, USA), Molecular Devices LLC (US), equiped with SoftMax software version 6.4.2 (Sunnyvale, CA, USA). Separate plates were loaded with standard solutions in nine concentrations (0.2 to 80 µg/mL). For evaluation of the aqueous solubility, the samples were prepared in triplicate by adding 10 µL of the stock solution to the wells loaded with 190 µL of each buffer, using MultiScreen HTS plates (PCF, code MSSLBPC, Merck Millipore, Darmstadt, Germany). After 30 minutes of incubation at 37 ± 0.5 °C under agitation (250 rpm, IKA KS 4000 ic control, IKA, Staufen, Germany), the plates were filtrated under vacuum using a Vac-Man 96 Vacuum manifold (Promega Corporation, Madison, WI, USA). The solutions were collected in V-bottom polypropylene 96-well microplates (Greiner Bio-One, Kremsmünster, Austria). Volumes of 100 µL were transferred to UV-Star 96-well microplate with flat bottom (Chimney well, Grained Bio-One) and diluted by addition of 100 µL of the corresponding medium. The absorbance corresponding to each well was determined at fixed wavelengths: 280, 300, 320, 340, 360 and 800 nm. The reduced value of absorbance, calculated by the sum of the values recorded at the six wavelengths, were used for the calibration curve and subsequent determination of concentration in each solubility sample.

The subject of series [2] is SKBR-3 human breast cancer cell line. In words: Alamar blue cell viability assay. In kind it is cell-based. The settings on record: relative to untreated control; for Viability %: 48 h treatment, 10 µM. On the procedure: (§1) Compounds HL, 1, 5, 6 and 8 were dissolved in dimethyl sulfoxide (DMSO; Sigma-Aldrich, Ayrshire, UK) and stored at 2–8 °C. Compounds 2, 3, 4 and 7 were dissolved in pyridine (Fluka, Munich, Germany). A stock solution of 10 mM in the proper solvents was prepared; as for the final concentration (10 µM), successive dilution of the stock solution with culture medium was made.
(§2) The breast cancer cell lines were cultured as follow: MCF-7 human breast cancer cell line (ATCC, Rockville, MD, USA) was cultured in EMEM (Sigma Aldrich, Munich, Germany) supplemented with 10% FCS (fetal bovine serum, PromoCell, Heidelberg, Germany), 1% penicillin-streptomycin (Pen/Strep, 10,000 IU/mL; PromoCell, Heidelberg, Germany), 1% nonessential amino acids and 1% glutamine (PromoCell, Heidelberg, Germany). SKBR-3 human breast cancer cell line was cultured in McCoy’s 5a Medium Modified (Sigma Aldrich, Munich, Germany) supplemented with 10% FCS (fetal bovine serum, PromoCell, Heidelberg, Germany), 1% penicillin-streptomycin (Pen/Strep, 10,000 IU/mL; PromoCell, Heidelberg, Germany). A375 human melanoma cell line was cultured in DMEM containing 15% FCS (fetal bovine serum, PromoCell, Heidelberg, Germany) and 1% penicillin-streptomycin (Pen/Strep, 10,000 IU/mL; PromoCell, Heidelberg, Germany). Cells were maintained at an atmosphere of 5% CO2 at 37 °C. NCI-H1573 lung adenocarcinoma cell line was cultured in RPMI-1640 Medium (ATCC, Rockville, MD, USA) supplemented with 10% FCS (fetal bovine serum, PromoCell, Heidelberg, Germany), 1% penicillin-streptomycin (Pen/Strep, 10,000 IU/mL; PromoCell, Heidelberg, Germany).
(§3) All tested cell lines were seeded onto a 96-well microplate ([…]) and left overnight to attach to the bottom of the well. After 24 h, the amount of 150 μL of the tested substances dissolved into the culture medium was added and cells were incubated for 48 h. After the incubation period, a volume of 15 μL of the Alamar blue (BioSource, Camarillo, CA, USA) solution was added. After another 10 h of incubation at 37 °C, the samples were spectrophotometrically analyzed using a microplate reader. The wave lengths used were 570 nm and 600 nm, respectively. Wells with untreated cells were used as controls. The highest concentration of DMSO and pyridine (0.1%) used to prepare stock solutions was also tested, in order to identify the solvent activity. All measurements were performed in triplicate and data were presented as mean ± standard deviation.

Series [3] deals with MCF-7 human breast cancer cell line. In words: Alamar blue cell viability assay. In kind it is cell-based. The settings on record: 48 h treatment, relative to untreated control; for Viability %: 10 µM. On the procedure: as §1, §2, §3
Series [4] relates to NCI-H1573 lung adenocarcinoma cell line. In words: Alamar blue cell viability assay. In kind it is cell-based. The settings on record: 48 h treatment, relative to untreated control; for Viability %: 10 µM. How it is done:
as §1, §2, §3

Series [5] relates to A375 human melanoma cell line. The series is described as follows: Alamar blue cell viability assay. The class given is cell-based. The settings on record: relative to untreated control; for Viability %: 48 h treatment, 10 µM. On the procedure: as §1, §2, §3
A general note: Alamar Blue is a resazurin reagent that responds to reducing activity.

The next series can be described thus: in vivo. The settings on record: Daphnia magna.
The next series concerns Candida albicans. In words: Antifungal (antimycotic) activity, liquid Sabouraud medium (MIC/MBC). The class given is cell-based. The settings on record: C. albicans. From the text:
(§4) All synthesized complexes and the ligand were screened for their in vitro antibacterial activity against Gram-positive bacteria (Staphylococcus aureus), Gram-negative bacteria (Escherichia coli, Klebsiella pneumoniae) and antifungal activity (Candida albicans) strains using the paper disc diffusion technique (for the qualitative determination) and the serial dilutions in liquid broth method (for determination of MIC). Furacillinum and nystatine were used as standard drugs.
Antimycotic properties of the complexes were investigated in vitro on laboratory stem Candida albicans. The activity has been determined in a liquid Sabouraud nutritive environment (pH 6.8). The inoculates were prepared from fungi stems which were harvested over 3–7 days. Their concentration in suspension is (2–4) × 10^6 colonies form unities in milliliter. Sowings for levures and micelles were incubated at 37 °C during 7 and 14 days, respectively.

The test system of series [6] is Staphylococcus aureus, ATCC 25923. The series is described as follows: Antibacterial activity, serial dilutions in liquid broth (MIC/MBC). The class given is cell-based. The settings on record: S. aureus (G +).
From the text: as §4
(§5) The antibacterial activity of complexes and also of their prototype furacilin has been determined under liquid nutritive environment (2% of peptonate bullion (pH 7.0)) using the successive dilutions method. Escherichia coli, Klebsiella pneumoniae, and Staphylococcus aureus stems were used as reference culture for the in vitro experiment. The dissolution of studied substances in dimethylformamide, microorganism cultivation, suspension obtaining, determination of minimal inhibition concentration (MIC) and minimal bactericide concentration (MBC) have been carried out according to the method previously reported.

Series [7] deals with Klebsiella pneumoniae, ATCC 31,488. The series is described as above. The class given is cell-based. The settings on record: K. pneumoniae (G −).
From the text: as §4, §5

In series [8] the test system is Escherichia coli, ATCC 25922. The description is as above. The class given is cell-based. The settings on record: E. coli (G −).
From the text: as §4, §5

The nature of series [9]: Qualitative solubility in organic solvents. The class given is physicochemical.
Where [10] appears, read: Hydrochloric Acid 0.1 N (pH = 1.2).

Turning to `COc1cccc(/C=N/NC(=O)c2ccncc2)c1O` [HL, N-isonicotinoyl-N′-(3-metoxy-2 hydroxybenzaldehyde)-hydrazone], the solubility (commonly the concentration that dissolves in the medium under given conditions) at 30 min in series [1] (aqueous buffer, Acetate Buffer (pH = 4.5)) was 3.49 ± 0.41 µg/mL (≈ 12.9 µM); in series [1] (aqueous buffer, Phosphate Buffer (pH = 6.8)), 0.25 ± 0.02 µg/mL (≈ 0.922 µM); in series [1] (simulated gastric fluid, Hydrochloric Acid 0.1 N (pH = 1.2)), 2.02 ± 0.02 µg/mL (≈ 7.45 µM). Besides, the viability (usually a per cent measure of how many cells are alive, often set against a control) at 10 µM worked out at 76.3% in series [2] (Homo sapiens, SK-BR-3, 48 h treatment); 21.5% in series [3] (Homo sapiens, MCF7, 48 h); 29.2% in series [4] (Homo sapiens, NCI-H1573, 48 h); 82.4% in series [5] (Homo sapiens, A-375, 48 h treatment). Also, the LC50 (commonly the concentration that kills 50% of the test population) turned out to be 53.1 µM in the series “in vivo” (LC50, incubation period 24 h) and 52.6 µM in the series “in vivo” (LC50, incubation period 48 h).

With `COc1cccc(C=NNC(=O)c2ccncc2)c1[O-].O.O=[N+]([O-])[O-].[Cu+2]` [complex 3, [Cu(L)(NO3)]·H2O], the MBC was 3 µg/mL against Candida albicans, 0.15 µg/mL in series [6], 500 µg/mL in series [7] and 500 µg/mL in series [8]. The MIC (in general, the least concentration at which growth counts as inhibited) is recorded as 1.5 µg/mL against Candida albicans, 0.07 µg/mL in series [6], 500 µg/mL in [7] and 500 µg/mL in series [8]. Besides, the “solubility in compendial media” value in series [1] (Acetate Buffer (pH = 4.5)) is listed as 1.69 ± 0.18 µg/mL; in [1] (setting [10]), 0.92 ± 0.11 µg/mL; in series [1] (Phosphate Buffer (pH = 6.8)), less than 0.2 µg/mL. In addition, the “solubility in organic solvents (qualitative)” value in series [9] was “soluble in pyridine and is partially soluble in ethanol, methanol, acetonitrile, acetone, DMF and DMSO”. Besides, the Viability % in series [2] was 62.65%; in series [3], 2.44%; in series [4], 12.14%; in [5], 1.59%. Also, the LC50 turned out to be 317 µM in the series on Daphnia magna (incubation period 24 h) and 5.61 µM in the series on Daphnia magna (incubation period 48 h).

With `COc1cccc(C=NNC(=O)c2ccncc2)c1[O-].COc1cccc(C=NNC(=O)c2ccncc2)c1[O-].[Co+2]` [complex 5, [Co(L)2]], the MBC in the series on Candida albicans amounted to 250 µg/mL; in [6], 0.7 µg/mL; in series [7], 500 µg/mL; in series [8] it was 500 µg/mL. Further, the MIC in the series on Candida albicans is listed as 125 µg/mL; in [6], 0.7 µg/mL; in series [7], 500 µg/mL; in series [8], 250 µg/mL. Further, the results for the “solubility in compendial media” value in series [1] (Acetate Buffer (pH = 4.5)), in [1] (setting [10]) and in series [1] (Phosphate Buffer (pH = 6.8)) were 1.62 ± 0.72 µg/mL, less than 0.2 µg/mL and less than 0.2 µg/mL, respectively. Also, the “solubility in organic solvents (qualitative)” value in series [9] was “soluble in pyridine, DMF and DMSO, and is partially soluble in ethanol, methanol, acetonitrile, acetone”. Further, the Viability % in series [2] amounted to 76.68%; in series [3] it was 55.61%; in series [4], 89.79%; in [5], 88.96%. For the same compound, the LC50 stood at 278 µM in the series with Daphnia magna (incubation period 24 h) and 2.38 µM in the series on Daphnia magna (incubation period 48 h).
